Reference: patent publication US8589175B2, “Optimization and individualization of medication selection and dosing” (Children's Hospital Medical Center, priority 2005, dated 2013)

Key:
CYP2C9 = experiment: dosing recommendation per CYP2C9 metabolizer subgroup as percentage of usual population dose (Equations 4-6); design: species or system human; conditions: for 1 al (effect of 1 non-functional allele) / 2 al (effect of 2 non-functional alleles) / 2 al/1 al: CYP2C9; for UM (%) dosing recommendation: CYP2C9, head prints UM; for UM (%) dosing recommendation / IM (%) dosing recommendation / PM (%) dosing recommendation: percent of usual dose; for 2 al/1 al: ratio of the two effects; for IM (%) dosing recommendation: CYP2C9 intermediate metabolizers; for PM (%) dosing recommendation: CYP2C9 poor metabolizers
Source text: Determining “Minimal Dose Adjustment Units”
2C9 has 2 MDA units per non-functional allele.

CYP2D6 = conditions: human
CYP2C19 = experiment: dosing recommendation per CYP2C19 metabolizer subgroup as percentage of usual population dose (Equations 4-6)
Source text: Assuming the goal is to maintain the same AUC for all three subpopulations of patients, the following subpopulation dosing relationships hold: DPM=DEM*(AUCEM/AUCPM) OR DPM=DEM*R if R=(AUCEM/AUCPM) (Equation 2) DIM=DEM*(AUCEM/AUCIM) OR DIM=DEM*S if S=(AUCEM/AUCIM) (Equation 3)
By substituting equations 2 and 3 into equation 1, and then rearranging the equation to solve for the percent dose adjustment needed for each subgroup relative to the population dose: DEM(%)=100/(fEM+fIM*S+fPM*R) (Equation 4) DPM(%)=R*DEM (Equation 5) DIM(%)=S*DEM (Equation 6) Equations 4, 5, and 6 show how the dosing for the more homogeneous subgroups is determined and how the dosing results are expressed as a fraction of the clinician's usual heterogeneous whole group dosages. Determining “Minimal Dose Adjustment Units”
Example: The approach in the previous section leads to individualized initial drug dose recommendations for each of the 3 subgroups (extensive, poor and intermediate metabolizers). Each subgroup represents a specific number of functional alleles for the specific DME (extensive metabolizers have 2 functional, intermediate metabolizers have 1 functional and poor metabolizers have 0 functional). The resultant dosing recommendations are expressed as percentages of the clinician's usual starting dose. It is possible to investigate the effect of increasing numbers of non-functional alleles using these new dosing recommendations. For example, if DRX % is the dosing recommendation for subgroup X expressed as a percentage of the clinician's usual starting dose then the following are true: Effect of […] 1 non-functional allele=(DREM %−DRIM %)/DREM % Effect of 2 non-functional allele=(DREM %−DRPM %)/DREM % Below is a spreadsheet (Table 3) that examines this for CYP2D6, CYP2C19 and CYP2C9. […] 2C9 has 2 MDA units per non-functional allele.

SMILES | 1 al (effect of 1 non-functional allele) (CYP2C9) | 2 al (effect of 2 non-functional alleles) (CYP2C9) | UM (%) dosing recommendation (CYP2C9) | 2 al/1 al (CYP2C9) | IM (%) dosing recommendation (CYP2C9) | PM (%) dosing recommendation (CYP2C9) | 1 al (effect of 1 non-functional allele) (CYP2D6) | 2 al (effect of 2 non-functional alleles) (CYP2D6) | EM (%) dosing recommendation (CYP2D6) | IM (%) dosing recommendation (CYP2D6) | PM (%) dosing recommendation (CYP2D6) | UM (%) dosing recommendation (CYP2D6) | other results
CC(C)n1c(/C=C/[C@@H](O)C[C@@H](O)CC(=O)O)c(-c2ccc(F)cc2)c2ccccc21 (racemic) [Lescol] | 0.20 | 0.65 | 100% | 3.25 | 80% | 35% |  |  |  |  |  |  | 
CCC1=C(C)CN(C(=O)NCCc2ccc(S(=O)(=O)NC(=O)N[C@H]3CC[C@H](C)CC3)cc2)C1=O [Amaryl] | 0.42 | 0.83 | 120% | 2.00 | 70% | 20% |  |  |  |  |  |  | 
CCCNC(=O)NS(=O)(=O)c1ccc(Cl)cc1 [Diabinese] | 0.58 | 0.83 | 120% | 1.43 | 60% | 20% |  |  |  |  |  |  | 
CN1CCN2c3ccccc3Cc3ccccc3C2C1 (stereo not shown) [mianserin] |  |  |  |  |  |  | 0.21 | 0.35 | 114% | 90% | 74% | 134% | 2 al/1 al (CYP2D6): 1.67; 1 al (effect of 1 non-functional allele) (CYP2C19; human): 0.00; 2 al (effect of 2 non-functional alleles) (CYP2C19; human): 0.00; IM (%) dosing recommendation (CYP2C19; human): 100%; PM (%) dosing recommendation (CYP2C19; human): 100%; UM (%) dosing recommendation (CYP2C19; human): 100%
CCCCc1nc(Cl)c(CO)n1Cc1ccc(-c2ccccc2-c2nn[nH]n2)cc1 [Cozaar] | 0.50 | 0.80 | 100% | 1.60 | 50% | 20% |  |  |  |  |  |  | 
CC(=O)CC(c1ccccc1)c1c(O)c2ccccc2oc1=O (stereo not shown) [Coumadin] | 0.62 | 0.85 | 130% | 1.38 | 50% | 20% |  |  |  |  |  |  | 
CNCCCC12CCC(c3ccccc31)c1ccccc12 [maprotiline] |  |  |  |  |  |  | 0.35 | 0.72 | 127% | 82% | 36% | 173% | 2 al/1 al (CYP2D6): 2.02; 1 al (effect of 1 non-functional allele) (CYP2C19; human): 0.00; 2 al (effect of 2 non-functional alleles) (CYP2C19; human): 0.00; IM (%) dosing recommendation (CYP2C19; human): 100%; PM (%) dosing recommendation (CYP2C19; human): 100%; UM (%) dosing recommendation (CYP2C19; human): 100%
O=C1NC(=O)C(c2ccccc2)(c2ccccc2)N1 [Dilantin] | 0.36 | 0.64 | 110% | 1.75 | 70% | 40% |  |  |  |  |  |  | 
CN1CCN(C2=Nc3cc(Cl)ccc3Nc3ccccc32)CC1 [clozapine] |  |  |  |  |  |  | −0.11 | −0.20 | 94% | 104% | 113% | 84% | 1 al (effect of 1 non-functional allele) (CYP2C19; human): 0.13; 2 al (effect of 2 non-functional alleles) (CYP2C19; human): 0.25; 2 al/1 al (CYP2C19; human): 2.00; IM (%) dosing recommendation (CYP2C19; human): 91%; PM (%) dosing recommendation (CYP2C19; human): 78%; UM (%) dosing recommendation (CYP2C19; human): 104%
Cc1ccc(-c2cc(C(F)(F)F)nn2-c2ccc(S(N)(=O)=O)cc2)cc1 [Celebrex] | 0.30 | 0.65 | 100% | 2.17 | 70% | 35% |  |  |  |  |  |  | 
CN(C)CCC=C1c2ccccc2CCc2ccccc21 [amitryptiline] |  |  |  |  |  |  | 0.17 | 0.34 | 111% | 92% | 73% | 130% | 2 al/1 al (CYP2D6): 2.00; 1 al (effect of 1 non-functional allele) (CYP2C19; CYP2C19): 0.26; 2 al (effect of 2 non-functional alleles) (CYP2C19; CYP2C19): 0.51; UM (%) dosing recommendation (CYP2C19; CYP2C19, head prints UM, percent of usual dose): 109%; 2 al/1 al (CYP2C19; CYP2C19, ratio of the two effects): 2.00; IM (%) dosing recommendation (CYP2C19; CYP2C19 intermediate metabolizers, percent of usual dose): 81%; PM (%) dosing recommendation (CYP2C19; CYP2C19 poor metabolizers, percent of usual dose): 53%
